{"source": "patent US20070087364A1", "about": "“In vitro erythroid micronucleus assay for genotoxicity” (Massachusetts Institute of Technology, priority 2005, published 2007)", "key": {"Lin^− bone marrow cells [1]": {"test_system": "Lin^− bone marrow cells", "experiment": "erythropoietic growth of Lin− bone marrow quantified by flow cytometry (Ter-119/CD71) and total cell counts", "assay_type": "cell-based, mouse", "conditions": "for Avg Growth +/− SD: SCF 0, 72 h", "experimental": "FIG. 13 is a bar graph of data obtained from experiments performed to determined the effect of Epo on the erythropoietic growth of Lin− bone marrow cells. Lin^− bone marrow cells were cultured for 1 day in media containing serum along with Epo at variable concentrations. Epo was removed from the culture media at the end of 1 day, and culture was continued for 2 more days in media with serum. At the end of the third day, the resulting populations were removed from culture and erythropoietic growth was quantified as the product of total cell counts and flow cytometric region fractions. Specifically, erythroid-specific growth at two late stages was calculated for each culture by taking the product of the total cell count and the fraction of the population found to have the indicated surface phenotype (determined by flow cytometry). These erythroid growth values were then normalized to the number of Lin^− cells seeded.\nStudies were conducted by stimulating Lin^− mouse BM with specifically defined media formulations for 24 hours before replacing the medium to a minimal erythroid-differentiation medium (EDM) and culturing for an additional 2-3 days. This EDM contains 20% FBS, 2 mM L-glutamine, and 0.1 mM β-mercaptoethanol in IMDM, whereas the “Day 1” medium consists of IMDM with 15% FBS, 2 mM L-glutamine, 0.1 mM β-mercaptoethanol, 1% BSA, 200 μg holo-transferrin, 10 μg/mL insulin as well as further supplements (some specific media formulations listed in Table I). Upon harvest, the number of late-stage erythroid cells and enucleated erythrocytes produced over the culture period was analyzed. […] Although the most relevant endpoint for these cultures is PCEs-produced per primary BM cell, the number of R4 and R5 cells in the post-culture population, as measured by flow ctyometry, provided a reasonable metric of PCE content for early screening studies. More rigorous quantification, via histological analysis, was then employed in a more detailed analysis to generate FIGS. 11, 12, 14 and 16.\nAs shown above, short-term erythropoietic culture can be used to detect genotoxic exposure. Quantitative studies on the erythropoietic growth of Lin^− BM after stimulus with physiologic erythropoietic factors were used to further improve the culture methodology and thus increase the potential throughput of the in vitro erythroid MN assay described here. Initially, flow cytometry was used to define late-erythroid cells by subdividing the Ter-119^+ population based on CD71 expression (regions shown in FIG. 4) to estimate the fraction of a culture that acquired late-erythroid surface markers. The products of flow cytometric region statistics and total cell counts were calculated and then normalized to input cell numbers to quantify erythropoietic growth in a culture.\nTable II. in vitro erythroid growth is modulated by physiologic erythropoietic stimuli. The culture conditions listed on the left-hand side of the table specify the environment in which a growth measurement was made. All soluble growth factors used in these experiments were removed from culture after 1 day. An X in this first section of the table indicates the variable parameter found to have a significant erythropoietic growth-effect. The measured effect of that parameter on erythropoietic growth is then given on the right-hand side of the table. In this right-hand section of the table, the first item listed is the defining surface phenotype of the erythropoietic population. […] Finally, the level of significance (P value) is given. Note that the first 4 entries to this table were taken from FIG. 13; other entries were obtained from similar figures. P values were determined by the two-tailed t test, except for the 3 italicized P values, which were determined using the one-tailed t test."}, "Lin^− bone marrow cells [2]": {"test_system": "Lin^− bone marrow cells", "experiment": "PCE growth of Lin− bone marrow by acridine orange histology, fractional-factorial design with regression", "assay_type": "cell-based, mouse", "experimental": "(FIG. 14A) Lin^− bone marrow cells were cultured for 1 day in media containing serum and various combinations of soluble growth factors as listed on the abscissa; these specific 6-factor combinations constitute an orthogonal fractional-factorial design (also represented in Table 1). After 1 day, all soluble erythropoietic growth factors were removed and the cells were cultured for either 2 or 3 additional days in medium with serum. At harvest, the cells were removed from culture and late erythropoietic growth was quantified. For each culture, PCE numbers were calculated by taking the product of the total cell count and the PCE fraction of the population as determined by differential cell counting after staining with acridine orange (>2000 cells scored per culture). Growth calculations were normalized to input cell numbers and are presented as the mean of 3 independent cultures +/− the standard deviation. (FIG. 14B) Culture methods that yielded similar populations at harvest were grouped into subsets (α, β, γ, and δ); growth characteristics for these subsets were quantified and representative micrographs were acquired. […] Cultures exposed to SCF but not Epo (subset γ) expanded approximately 2.5-fold in total cell numbers, but again contained less than 3% PCEs. Cultures exposed to both Epo and SCF (subset β) expanded approximately 13-fold in total cell numbers and yielded populations in which approximately 31% of all cells are PCEs. Finally, cultures exposed to both Epo and Dex but not SCF (subset δ) expanded approximately 4-fold while producing populations in which approximately 51% of all cells are PCEs. Growth calculations are presented as the mean of all cultures in a subset ± the standard deviation. Scale bars: 20 μm.\nTable I is an experimental design chart that provides the specific details of the experimental conditions that were examined to generate FIGS. 11, 12, 14 and 16. Specifically, this experimental design is a two-level, minimum-aberration, fractional-factorial design of resolution IV (a 2IV^6-2 minimum-aberration design). The full-factorial design was not performed because an experiment of this size (2^6 cultures for each biological singlet) was logisitically infeasible. This experiment was designed in order to estimate all the main (primary) interactions between the culture response (PCEs produced) and the individual parameters included in the design. In addition, many of the secondary interactions (between the culture response and various parameter-pairs) were estimable by conducting this design (see FIGS. 12 and 16), although some of these secondary interactions were confounded with other secondary interactions. Each condition listed in the design table was tested in biological triplicate, and each triplicate set was cultured under three different atmospheric conditions, to yield a total of nine culture wells per listed condition.\nFurthermore, some variability between various Lin^− BM isolations was observed over the course of preliminary flow cytometric studies. Therefore, a definitive study was conducted that used aliquots of a large, well-mixed Lin^− population that was isolated from the combined BM of 15 mice. In this study, flow cytometry was replaced by histological analysis to provide more rigorous quantification of a population's PCE content. This study was designed to estimate the relative stimulatory effect of various, previously-identified erythroid growth factors on culture performance. Specifically a minimum-aberration, fractional-factorial experimental design (a 2IV^6-2 minimum-aberration design) was conducted to estimate all the main (primary) interactions between the culture response, which was PCEs produced (as assessed by histology), and the individual parameters included in the design (see Table I, and FIGS. 11, 12, 14 and 16). […]"}, "[3]": {"conditions": "complete multi-linear regression model (n3=27), parameters scaled 0 to 1"}, "[4]": {"conditions": "reduced multi-linear regression model (n3=17), FIG. 16"}}, "note": "Entries after “also recorded” stand apart in the source; their conditions may differ.", "data": [{"molecule": "C[C@@H]1C[C@H]2[C@@H]3CCC4=CC(=O)C=C[C@]4(C)[C@@]3(F)[C@@H](O)C[C@]2(C)[C@@]1(O)C(=O)CO", "note": "[Dex, Dexamethasone, reference compound]", "values": [{"measurement": "Avg Growth +/− SD", "setting": "Lin^− bone marrow cells [1]; [Dex] = 1 μM, Ter-119+ CD71+, Epo 5 U/mL, CO2 0.5%, 20% O2, Fn 2, Ins 10, IGF-I 10 ng/mL", "value": "0.278 +/− 0.102 per Lin^− cell seeded"}, {"measurement": "Avg Growth +/− SD", "setting": "Lin^− bone marrow cells [1]; [Dex] = 1 μM, Ter-119+ CD71−, Epo 5 U/mL, CO2 0.5%, 20% O2, Fn 2, Ins 10, IGF-I 0", "value": "0.016 +/− 0.006 per Lin^− cell seeded"}, {"measurement": "Avg Growth +/− SD", "setting": "Lin^− bone marrow cells [1]; [Dex] = 10 μM, Ter-119+ CD71−, Epo 5 U/mL, CO2 0.5%, 20% O2, Fn 2, Ins 10, IGF-I 0", "value": "0.028 +/− 0.016 per Lin^− cell seeded"}, {"measurement": "Scaled Estimate (model parameter, PCE growth)", "setting": "Lin^− bone marrow cells [2]; [3]", "value": "−0.298"}, {"measurement": "Scaled Estimate (model parameter, PCE growth)", "setting": "Lin^− bone marrow cells [2]; [4]", "value": "−0.333"}]}, {"molecule": "Epo: erythropoietin (Amgen), essential component of the erythropoietic media formulation", "values": [{"measurement": "Avg Growth +/− SD", "setting": "Lin^− bone marrow cells [1]; [Epo] = 2 U/mL (low-growth comparison), Ter-119+ CD71−, 5% CO2, 20% O2, Fn 2, Dex 0, Ins 10, IGF-I 0", "value": "0.141 +/− 0.019 per Lin^− cell seeded"}, {"measurement": "Avg Growth +/− SD", "setting": "Lin^− bone marrow cells [1]; [Epo] = 5 U/mL, Ter-119+ CD71−, 5% CO2, 20% O2, Fn 2 μg/sq cm, Dex 0, Ins 10 μg/mL, IGF-I 0", "value": "0.307 +/− 0.022 per Lin^− cell seeded"}, {"measurement": "Avg Growth +/− SD", "setting": "Lin^− bone marrow cells [1]; [Epo] = 10 U/mL, Ter-119+ CD71−, 5% CO2, 20% O2, Fn 2, Dex 0, Ins 10, IGF-I 0", "value": "0.380 +/− 0.050 per Lin^− cell seeded"}, {"measurement": "Avg Growth +/− SD", "setting": "Lin^− bone marrow cells [1]; [Epo] = 50 U/mL, Ter-119+ CD71−, 5% CO2, 20% O2, Fn 2, Dex 0, Ins 10, IGF-I 0", "value": "0.312 +/− 0.030 per Lin^− cell seeded"}, {"measurement": "Avg Growth +/− SD", "setting": "Lin^− bone marrow cells [1]; [Epo] = 500 U/mL, Ter-119+ CD71−, 5% CO2, 20% O2, Fn 2, Dex 0, Ins 10, IGF-I 0", "value": "0.314 +/− 0.019 per Lin^− cell seeded"}, {"measurement": "level at which the erythropoietic stimulatory effect reached a maximum", "setting": "Lin^− bone marrow cells [1]; cultured Lin− BM, Epo present for first day", "value": "approximately 10 U/mL"}, {"measurement": "relative size of growth effects by multi-linear regression, in words", "setting": "Lin^− bone marrow cells [2]; FIG. 16", "value": "largest eyrthropoietic growth effect"}, {"measurement": "Scaled Estimate (model parameter, PCE growth)", "setting": "Lin^− bone marrow cells [2]; [3]", "value": 3.136}, {"measurement": "effect on PCE production / erythropoietic growth, statistical analysis of FIG. 12", "setting": "Lin^− bone marrow cells [2]; primary and secondary effects, untreated cultures", "value": "major factors influencing erythropoietic growth; also recorded: the largest, and most statistically-significant, effect"}, {"measurement": "Scaled Estimate (model parameter, PCE growth)", "setting": "Lin^− bone marrow cells [2]; [4]", "value": 3.130}]}, {"molecule": "IGF-I: Insulin-like Growth Factor I (R&D systems)", "values": [{"measurement": "effect on erythropoietic growth (erythropoietic flow cytometry), in words", "setting": "Lin^− bone marrow cells [1]; preliminary flow cytometric studies, Lin− BM from C57BL/6J mice", "value": "had an effect on erythroid cell numbers"}, {"measurement": "Scaled Estimate (model parameter, PCE growth)", "setting": "Lin^− bone marrow cells [2]; [3]", "value": "−0.231"}, {"measurement": "Scaled Estimate (model parameter, PCE growth)", "setting": "Lin^− bone marrow cells [2]; [4]", "value": "−0.200"}]}, {"molecule": "Ins: recombinant human insulin (Sigma)", "values": [{"measurement": "Avg Growth +/− SD", "setting": "Lin^− bone marrow cells [1]; [Ins] = 10 μg/mL, Ter-119+ CD71+, Epo 5 U/mL, 5% CO2, 20% O2, Fn 0", "value": "1.743 +/− 0.107 per Lin^− cell seeded"}, {"measurement": "Avg Growth +/− SD", "setting": "Lin^− bone marrow cells [1]; [Ins] = 10 μg/mL, Ter-119+ CD71−, Epo 5 U/mL, 5% CO2, 20% O2, Fn 0", "value": "0.382 +/− 0.008 per Lin^− cell seeded"}, {"measurement": "Avg Growth +/− SD", "setting": "Lin^− bone marrow cells [1]; [Ins] = 100 μg/mL, Ter-119+ CD71+, Epo 5 U/mL, 5% CO2, 20% O2, Fn 0", "value": "2.096 +/− 0.121 per Lin^− cell seeded"}, {"measurement": "Avg Growth +/− SD", "setting": "Lin^− bone marrow cells [1]; [Ins] = 100 μg/mL, Ter-119+ CD71−, Epo 5 U/mL, 5% CO2, 20% O2, Fn 0", "value": "0.427 +/− 0.015 per Lin^− cell seeded"}]}]}
